Results published in patent publication US10392383B2, “3-(1H-benzo[d]imidazol-2-yl)-1H-pyrazolo[4,3-b]pyridines and therapeutic uses thereof” (Samumed, LLC, priority 2015, dated 2019).
pEC50: −log10 of the molar value.

What was measured:
IL-6 (THP-1 cells) = test: IL-6 inhibition in LPS-stimulated THP-1 monocytes (HTRF); assay type: cell-based; settings: Homo sapiens, IL-6 HTRF; for pEC50: 500 ng/mL LPS, Table 6; for inhibition at 10 µM: LPS, Table 6, read-out: percent inhibition at 10 μM (given in parentheses for EC50 >10 μM)
How it was run: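 THP-1 cells in 1% FBS pre-incubated 2 h with compound (10-point 1:3 series from 10 μM, 0.1% DMSO), then stimulated with 500 ng/mL LPS for 22 h at 37 °C. IL-6 measured by HTRF 665/620 ratio, normalized to DMSO; EC50 by four-parameter fit, or % inhibition at 10 μM when EC50 >10 μM.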

[1] = tested on: primary human mesenchymal stem cells (hMSCs); test: Induction of chondrogenesis in human mesenchymal stem cells (nodule staining with Rhodamine B / Nile Red); assay type: cell-based; settings: for Emax: TGF-β3 (10 ng/mL) as positive control, read-out: Max. Activity as % TGF-β3 activity; for EC50: concentration required to induce 50% levels of chondrogenesis vs TGF-β3, read-out: Conc (nM) of 50% TGF-β3 activity
How it was run: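 Primary hMSCs (passage 3–6) in incomplete chondrogenic induction medium were exposed 6 days at 37° C to compound (1:3 dilutions, 2700–10 nM in 96-well or 5000–2.2 nM in 384-well; 0.03% DMSO). Nodules stained with Rhodamine B/Nile Red were imaged; area normalized to DMSO wells for EC50, maximal activity and dose at maximum.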

| SMILES | pEC50 (IL-6 (THP-1 cells)) | inhibition at 10 µM (IL-6 (THP-1 cells)) | Emax [1] | EC50 [1] |
| --- | --- | --- | --- | --- |
| Cc1ccncc1-c1ccc2[nH]nc(-c3nc4c(-c5ccsc5)cccc4[nH]3)c2n1 [Compound 285, 5-(4-Methylpyridin-3-yl)-3-(4-(thiophen-3-yl)-1H-benzo[d]imidazol-2-yl)-1H-pyrazolo[4,3-b]pyridine] | < 5.00 | 36.3% | 32% |  |
| FC1(F)CCN(Cc2cncc(-c3ccc4[nH]nc(-c5nc6c(-c7ccsc7)cccc6[nH]5)c4n3)c2)C1 [Compound 306, 5-(5-((3,3-Difluoropyrrolidin-1-yl)methyl)pyridin-3-yl)-3-(4-(thiophen-3-yl)-1H-benzo[d]imidazol-2-yl)-1H-pyrazolo[4,3-b]pyridine] | 5.35 |  | 39% |  |
| CCNCc1cncc(-c2ccc3[nH]nc(-c4nc5c(-c6ccoc6)cccc5[nH]4)c3n2)c1 [Compound 314, N-((5-(3-(4-(Furan-3-yl)-1H-benzo[d]imidazol-2-yl)-1H-pyrazolo[4,3-b]pyridin-5-yl)pyridin-3-yl)methyl)ethanamine] | < 5.00 | 15.6% | 32% |  |
| CCC(=O)Nc1cncc(-c2ccc3[nH]nc(-c4nc5c(-c6cccs6)cccc5[nH]4)c3n2)c1 [Compound 337, N-(5-(3-(4-(Thiophen-2-yl)-1H-benzo[d]imidazol-2-yl)-1H-pyrazolo[4,3-b]pyridin-5-yl)pyridin-3-yl)propionamide] | 5.68 |  | 57% |  |
| CN(C)c1cncc(-c2ccc3[nH]nc(-c4nc5c(-c6cccs6)cccc5[nH]4)c3n2)c1 [Compound 343, N,N-Dimethyl-5-(3-(4-(thiophen-2-yl)-1H-benzo[d]imidazol-2-yl)-1H-pyrazolo[4,3-b]pyridin-5-yl)pyridin-3-amine] | 5.43 |  | 83% | 100 nM |
| CN(C)Cc1cncc(-c2ccc3[nH]nc(-c4nc5c(-c6cccs6)cccc5[nH]4)c3n2)c1 [Compound 349, N,N-dimethyl-1-(5-(3-(4-(thiophen-2-yl)-1H-benzo[d]imidazol-2-yl)-1H-pyrazolo[4,3-b]pyridin-5-yl)pyridin-3-yl)methanamine] | < 5.00 | 14.5% | 51% | 10 nM |
| Cc1ccc(-c2cccc3[nH]c(-c4n[nH]c5ccc(-c6cncc(N)c6)nc45)nc23)s1 [Compound 395, 5-(3-(4-(5-Methylthiophen-2-yl)-1H-benzo[d]imidazol-2-yl)-1H-pyrazolo [4,3-b]pyridin-5-yl)pyridin-3-amine] | 7.19 |  | 88% | 10 nM |
| Cc1ccc(-c2cccc3[nH]c(-c4n[nH]c5ccc(-c6cncc(NC(=O)C(C)C)c6)nc45)nc23)s1 [Compound 401, N-(5-(3-(4-(5-Methylthiophen-2-yl)-1H-benzo[d]imidazol-2-yl)-1H-pyrazolo [4,3-b]pyridin-5-yl)pyridin-3-yl)isobutyramide] | < 5.00 | 45.4% | 124% | 300 nM |
| CCNCc1cncc(-c2ccc3[nH]nc(-c4nc5c(-c6cc(F)cc(NCCN(C)C)c6)cccc5[nH]4)c3n2)c1 [Compound 454, N^1-(3-(2-(5-(5-((Ethylamino)methyl)pyridin-3-yl)-1H-pyrazolo[4,3-b]pyridin-3-yl)-1H-benzo[d]imidazol-4-yl)-5-fluorophenyl)-N^2,N^2-dimethylethane-1,2-diamine] | 6.20 |  | 104% | 62 nM |
| CC(C)Nc1cncc(-c2ccc3[nH]nc(-c4nc5c(-c6cc(F)cc(NCCN(C)C)c6)cccc5[nH]4)c3n2)c1 [Compound 460, N^1-(3-Fluoro-5-(2-(5-(5-(isopropylamino)pyridin-3-yl)-1H-pyrazolo[4,3-b]pyridin-3-yl)-1H-benzo[d]imidazol-4-yl)phenyl)-N^2,N^2-dimethylethane-1,2-diamine] | 6.01 |  | 62% | 10 nM |
| CCCCC(=O)Nc1cncc(-c2ccc3[nH]nc(-c4nc5c(-c6cc(F)cc(NCCN(C)C)c6)cccc5[nH]4)c3n2)c1 [Compound 467, N-(5-(3-(4-(3-((2-(Dimethylamino)ethyl)amino)-5-fluorophenyl)-1H-benzo [d]imidazol-2-yl)-1H-pyrazolo[4,3-b]pyridin-5-yl)pyridin-3-yl)pentanamide] | 5.88 |  | 36% |  |
| Cc1ccncc1-c1ccc2[nH]nc(-c3nc4c(-c5cc(F)cc(CNS(C)(=O)=O)c5)cccc4[nH]3)c2n1 [Compound 481, N-(3-Fluoro-5-(2-(5-(4-methylpyridin-3-yl)-1H-pyrazolo[4,3-b]pyridin-3-yl)-1H-benzo[d]imidazol-4-yl)benzyl)methanesulfonamide] | 5.67 |  | 36% |  |
| CCCC(=O)Nc1cncc(-c2ccc3[nH]nc(-c4nc5c(-c6cc(F)cc(CNS(C)(=O)=O)c6)cccc5[nH]4)c3n2)c1 [Compound 493, N-(5-(3-(4-(3-Fluoro-5-(methylsulfonamidomethyl)phenyl)-1H-benzo[d]imidazol-2-yl)-1H-pyrazolo[4,3-b]pyridin-5-yl)pyridin-3-yl)butyramide] | < 5.00 | 35.3% | 100% | 900 nM |
| Fc1cccc(-c2cccc3[nH]c(-c4n[nH]c5ccc(C6CCNCC6)nc45)nc23)c1 [Compound 505, 3-(4-(3-Fluorophenyl)-1H-benzo[d]imidazol-2-yl)-5-(piperidin-4-yl)-1H-pyrazolo[4,3-b]pyridine] | 5.31 |  | 46% |  |
| Cn1cc(-c2ccc3[nH]nc(-c4nc5c(-c6cccc(F)c6)cccc5[nH]4)c3n2)cn1 [Compound 508, 3-(4-(3-Fluorophenyl)-1H-benzo[d]imidazol-2-yl)-5-(1-methyl-1H-pyrazol-4-yl)-1H-pyrazolo[4,3-b]pyridine] | < 5.00 | 0% | 48% |  |
| Cc1ncc(-c2ccc3[nH]nc(-c4nc5c(-c6cccc(F)c6)cccc5[nH]4)c3n2)n1C [Compound 509, 5-(1,2-Dimethyl-1H-imidazol-5-yl)-3-(4-(3-fluorophenyl)-1H-benzo[d]imidazol-2-yl)-1H-pyrazolo[4,3-b]pyridine] | 6.10 |  | 112% | 10 nM |
| NC1CN(c2cncc(-c3ccc4[nH]nc(-c5nc6c(-c7cccc(F)c7)cccc6[nH]5)c4n3)n2)C1 [Compound 510, 1-(6-(3-(4-(3-Fluorophenyl)-1H-benzo[d]imidazol-2-yl)-1H-pyrazolo[4,3-b]pyridin-5-yl)pyrazin-2-yl)azetidin-3-amine] | 5.11 |  | 53% | 7 nM |
| Fc1cccc(-c2cccc3[nH]c(-c4n[nH]c5ccc(-c6cncc(OC7CCNCC7)c6)nc45)nc23)c1 [Compound 512, 3-(4-(3-Fluorophenyl)-1H-benzo[d]imidazol-2-yl)-5-(5-(piperidin-4-yloxy)pyridin-3-yl)-1H-pyrazolo[4,3-b]pyridine] | 5.82 |  | 75% | 7 nM |
| CN(C)CCOc1cncc(-c2ccc3[nH]nc(-c4nc5c(-c6cccc(F)c6)cccc5[nH]4)c3n2)c1 [Compound 515, 2-((5-(3-(4-(3-Fluorophenyl)-1H-benzo[d]imidazol-2-yl)-1H-pyrazolo[4,3-b]pyridin-5-yl)pyridin-3-yl)oxy)-N,N-dimethylethan-1-amine] | 5.13 |  | 55% | 2 nM |
| COc1cncc(-c2ccc3[nH]nc(-c4nc5c(-c6cccc(F)c6)cccc5[nH]4)c3n2)c1 [Compound 516, 3-(4-(3-Fluorophenyl)-1H-benzo[d]imidazol-2-yl)-5-(5-methoxypyridin-3-yl)-1H-pyrazolo[4,3-b]pyridine] | < 5.00 | 49.5% | 54% | 2 nM |
| Oc1cncc(-c2ccc3[nH]nc(-c4nc5c(-c6cccc(F)c6)cccc5[nH]4)c3n2)c1 [Compound 517, 5-(3-(4-(3-Fluorophenyl)-1H-benzo[d]imidazol-2-yl)-1H-pyrazolo[4,3-b]pyridin-5-yl)pyridin-3-ol] | 5.01 |  | 45% |  |
